The source of these data is ChEMBL document CHEMBL1151598, “Synthesis of in vivo potent antimalarial 1,2,4-trioxanes” (Bioorg Med Chem Lett, 1992).

In experiment [1] the test system is Mus musculus. Put plainly: Compound was tested for in vivo antimalarial activity against Plasmodium berghei in male mice (Mus musculus) at dose of 90 mg/kg (intraperitoneal); A - Active. On the set-up: dose 90 mg/kg. The class given is functional, organism-based.
In experiment [2] the test system is Mus musculus. Kind of experiment: Compound was tested for in vivo antimalarial activity against Plasmodium berghei in male mice (Mus musculus) at dose of 30 mg/kg (ip); A - Active. The class given is functional, organism-based. Details: dose 30 mg/kg.

Activity calls are given as the source filed them. The rule behind the calls is not given here.

For the compound `C=C(c1ccc(Cl)cc1)C1COC2(OO1)C1CC3CC(C1)CC2C3` (stereo not drawn), the outcome in experiment [1] and in experiment [2] was Active. As for `C=C(c1ccccc1)C1COC2(OO1)C1CC3CC(C1)CC2C3` (stereo not drawn), the result in experiment [1] was Active. `C=C(c1ccc(OC)cc1)C1COC2(OO1)C1CC3CC(C1)CC2C3` (stereo not drawn): the outcome in experiment [1] and in experiment [2] was Active. As for `C=C(c1ccc(F)cc1)C1COC2(OO1)C1CC3CC(C1)CC2C3` (stereo not drawn), in experiment [1], the outcome was Active.

`C=C(c1ccc(C)cc1)C1COC2(OO1)C1CC3CC(C1)CC2C3` (stereo not drawn): the result in experiment [1] was Active.

`C=C(c1ccc(C)cc1C)C1COC2(OO1)C1CC3CC(C1)CC2C3` (stereo not drawn): the outcome in experiment [1] was Active.
